{"source": "patent US8101647B2", "about": "“Spiro-oxindole compounds and their use as therapeutic agents” (Xenon Pharmaceuticals Inc., priority 2008, dated 2012)", "key": {"sodium channel": {"tested_on": "sodium channel", "assay": "Guanidine influx assay", "type": "cell-based, human or rat", "conditions": "known cell line that expresses a sodium channel; read-out: IC50 Activity Level", "source_text": "This example describes an in vitro assay for testing and profiling test agents against human or rat sodium channels stably expressed in cells of either an endogenous or recombinant origin. The assay is also useful for determining the IC50 of a sodium channel blocking compound. The assay is based on the guanidine flux assay described by Reddy, N. L., et al., J. Med. Chem. (1998), 41(17):3298-302.\nThe guanidine influx assay is a radiotracer flux assay used to determine ion flux activity of sodium channels in a high-throughput microplate-based format. The assay uses ^14C-guanidine hydrochloride in combination with various known sodium channel modulators, to assay the potency of test agents. Potency is determined by an IC50 calculation. Selectivity is determined by comparing potency of the compound for the channel of interest to its potency against other sodium channels (also called ‘selectivity profiling’).\nEach of the test agents is assayed against cells that express the channels of interest. Voltage gated sodium channels are either TTX sensitive or insensitive. This property is useful when evaluating the activities of a channel of interest when it resides in a mixed population with other sodium channels. The following Table 1 summarizes cell lines useful in screening for a certain channel activity in the presence or absence of TTX.\nIt is also possible to employ recombinant cells expressing these sodium channels. Cloning and propagation of recombinant cells are known to those skilled in the art (see, for example, Klugbauer, N, et al., EMBO J. (1995), 14(6):1084-90; and Lossin, C., et al., Neuron (2002), 34, pp. 877-884).\nCells expressing the channel of interest are grown according to the supplier or in the case of a recombinant cell in the presence of selective growth media such as G418 (Gibco/Invitrogen). The cells are disassociated from the culture dishes with an enzymatic solution (1×) Trypsin/EDTA (Gibco/Invitrogen) and analyzed for density and viability using haemocytometer (Neubauer). Disassociated cells are washed and resuspended in their culture media then plated into Scintiplates (Beckman Coulter Inc.) (approximately 100,000 cells/well) and incubated at 37° C./5% CO2. for 20-24 hours. After an extensive wash with Low sodium HEPES-buffered saline solution (LNHBSS) (150 mM Choline Chloride, […] (Sigma), 1 mM Calcium Chloride, 5 mM Potassium Chloride, 1 mM Magnesium Chloride, 10 mM Glucose) agents diluted with LNHBSS are added to each well. (Varying concentrations of test agent may be used). The activation/radiolabel mixture contains aconitine (Sigma) to increase the percentage of time that the sodium channels are open, and ^14C-guanidine hydrochloride (ARC) to measure flux through the voltage-gated sodium channels.\nAfter loading the cells with test agent and activation/radiolabel mixture, the Scintiplates are incubated at ambient temperature. Following the incubation, the Scintplates are extensively washed with LNHBSS supplemented with guanidine (Sigma). The Scintiplates are dried and then counted using a Wallac MicroBeta TriLux (Perkin-Elmer Life Sciences). The ability of the test agent to block sodium channel activity is determined by comparing the amount of ^14C-guanidine present inside the cells expressing the different sodium channels.\nThe IC50 value of a test agent for a specific sodium channel may be determined using the above general method. […] Typically the mid-point concentration of test agent is set at 1 μM, and sequential concentrations of half dilutions greater or smaller are applied (e.g. 0.5 μM; 5 μM and 0.25 μM; 10 μM and 0.125 μM; 20 μM etc.). The IC50 curve is calculated using the 4 Parameter Logistic Model or Sigmoidal Dose-Response Model formula (fit=(A+((B−A)/(1+((C/x)^D)))).\nThe fold selectivity, factor of selectivity or multiple of selectivity, is calculated by dividing the IC50 value of the test sodium channel by the reference sodium channel, for example, NaV1.5. […]"}, "[1]": {"tested_on": "inactivated state of the channel of interest (sodium channel)", "assay": "Electrophysiological assay (whole cell voltage clamp)", "type": "cell-based", "conditions": "affinity for the inactivated state of the channel", "experimental": "Cells expressing the channel of interest are cultured in DMEM growth media (Gibco) with 0.5 mg/mL G418, +/−1% PSG, and 10% heat-inactivated fetal bovine serum at 37° C. and 5% CO2. For electrophysiological recordings, cells are plated on 10 mm dishes.\nWhole cell recordings are examined by established methods of whole cell voltage clamp (Bean et al., op. cit.) using an Axopatch 200B amplifier and Clampex software (Axon Instruments, Union City, Calif.). All experiments are performed at ambient temperature. Electrodes are fire-polished to resistances of 2-4 Mohms Voltage errors and capacitance artifacts are minimized by series resistance compensation and capacitance compensation, respectively. Data are acquired at 40 kHz and filtered at 5 kHz. The external (bath) solution consists of: NaCl (140 mM), KCl (5 mM), CaCl2 (2 mM), MgCl2 (1 mM), HEPES (10 mM) at pH 7.4. The internal (pipette) solution consists of (in mM): NaCl (5), CaCl2 (0.1), MgCl2 (2), CsCl (10), CsF (120), HEPES (10), EGTA (10), at pH 7.2.\nTo estimate the steady-state affinity of compounds for the resting and inactivated state of the channel (Kr and Ki, respectively), 12.5 ms test pulses to depolarizing voltages from −60 to +90 m V from a holding potential of −120 m V is used to construct current-voltage relationships (I-V curves). A voltage near the peak of the IV-curve (−30 to 0 m V) is used as the test pulse throughout the remainder of the experiment. Steady-state inactivation (availability) curves are then constructed by measuring the current activated during a 8.75 ms test pulse following 1 second conditioning pulses to potentials ranging from −120 to −10 mV.\nThe steady-state voltage-dependence of binding of a compound to a sodium channel is determined by measuring the blockage of the ionic current at two holding potentials. Binding to rested-state channels is determined by using a holding potential of −120 mV, so that maximal availability is achieved. Binding to inactivated-state channels is evaluated at a holding potential such that only 10% of the channels are available to open. The membrane potential is held at this voltage for at least 10 seconds so that drug binding can equilibrate.\nThe apparent dissociation constant at each voltage is calculated with the equation:\n[formula] where Kd is the dissociation constant (either Kr or Ki), and [Drug] is the concentration of the test compound.\nThe Example numbers provided in Table 3 correspond to the Examples herein: […]"}, "CYP3A4": {"target": "T1, CYP3A4 (Homo sapiens, UniProt P08684)", "T1 construct": "purchased Invitrogen Corporation (Vivid CYP450 Screening Kit)", "T1 sequence (P08684 whole entry)": "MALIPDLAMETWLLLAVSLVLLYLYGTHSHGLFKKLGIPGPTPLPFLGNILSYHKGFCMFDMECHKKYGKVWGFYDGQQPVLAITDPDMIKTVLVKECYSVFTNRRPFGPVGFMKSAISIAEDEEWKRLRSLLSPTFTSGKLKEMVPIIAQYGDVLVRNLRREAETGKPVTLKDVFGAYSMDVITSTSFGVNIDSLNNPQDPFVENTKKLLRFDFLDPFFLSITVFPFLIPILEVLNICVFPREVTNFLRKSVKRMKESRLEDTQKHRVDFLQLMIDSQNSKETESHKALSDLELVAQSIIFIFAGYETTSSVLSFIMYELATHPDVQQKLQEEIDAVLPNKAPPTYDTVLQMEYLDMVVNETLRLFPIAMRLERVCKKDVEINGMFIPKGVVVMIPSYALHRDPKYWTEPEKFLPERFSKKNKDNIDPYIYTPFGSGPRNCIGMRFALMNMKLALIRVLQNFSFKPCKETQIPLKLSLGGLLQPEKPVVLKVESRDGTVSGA", "assay": "Cytochrome P450 (CYP450) inhibition assay, fluorescence-based", "type": "in vitro ADME", "conditions": "recombinant CYP3A4 (P450 Baculosomes), probe Vivid substrate (fluorogenic)"}, "CYP2C19": {"target": "CYP2C19 (Homo sapiens, UniProt P33261)", "sequence (P33261 whole entry)": "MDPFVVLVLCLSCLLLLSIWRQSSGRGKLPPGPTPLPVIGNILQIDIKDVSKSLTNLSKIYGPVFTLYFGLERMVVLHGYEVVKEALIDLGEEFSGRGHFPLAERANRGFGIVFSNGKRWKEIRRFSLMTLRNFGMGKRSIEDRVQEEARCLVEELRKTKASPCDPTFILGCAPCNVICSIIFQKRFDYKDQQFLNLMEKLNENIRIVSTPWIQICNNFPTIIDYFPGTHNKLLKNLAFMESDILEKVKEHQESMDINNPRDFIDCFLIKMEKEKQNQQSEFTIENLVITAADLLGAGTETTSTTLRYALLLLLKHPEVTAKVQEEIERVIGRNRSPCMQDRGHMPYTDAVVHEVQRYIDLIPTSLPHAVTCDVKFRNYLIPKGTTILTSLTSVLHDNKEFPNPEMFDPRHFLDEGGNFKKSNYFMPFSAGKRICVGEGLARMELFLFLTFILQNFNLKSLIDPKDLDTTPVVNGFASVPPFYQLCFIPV"}, "CYP2C9": {"target": "CYP2C9 (Homo sapiens, UniProt P11712)", "sequence (P11712 whole entry)": "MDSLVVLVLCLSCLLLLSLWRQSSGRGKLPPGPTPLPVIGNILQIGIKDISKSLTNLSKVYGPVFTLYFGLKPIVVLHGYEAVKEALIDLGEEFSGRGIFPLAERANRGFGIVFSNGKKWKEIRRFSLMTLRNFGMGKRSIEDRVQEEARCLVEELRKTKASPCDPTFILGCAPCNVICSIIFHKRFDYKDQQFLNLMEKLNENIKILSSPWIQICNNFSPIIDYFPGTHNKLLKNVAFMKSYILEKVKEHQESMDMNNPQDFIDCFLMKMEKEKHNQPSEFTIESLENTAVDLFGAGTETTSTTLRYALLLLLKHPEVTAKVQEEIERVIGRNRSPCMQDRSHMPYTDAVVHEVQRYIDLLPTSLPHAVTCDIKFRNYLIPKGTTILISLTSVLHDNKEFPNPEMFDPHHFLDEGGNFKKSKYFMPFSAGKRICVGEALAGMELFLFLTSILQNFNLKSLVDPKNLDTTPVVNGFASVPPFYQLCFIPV"}, "CHO-K1 (Nav1.4)": {"target": "CHO-K1 (Nav1.4) (Cricetulus griseus, UniProt A0A9J7H6F9)", "type": "cell-based, Chinese Hamster"}, "L6 (Nav1.4 and 1.5)": {"tested_on": "L6 (Nav1.4 and 1.5)", "type": "cell-based, rat"}, "[2]": {"tested_on": "SH-SY5Y (Nav1.9 and Nav1.7)", "type": "cell-based, Human"}, "SK-N-BE2C (Nav1.8)": {"target": "SK-N-BE2C (Nav1.8) (Homo sapiens, UniProt Q9Y5Y9)", "type": "cell-based"}, "PC12 (Nav1.2)": {"target": "PC12 (Nav1.2) (Rattus norvegicus, UniProt P04775)", "sequence (P04775 whole entry, looked up)": "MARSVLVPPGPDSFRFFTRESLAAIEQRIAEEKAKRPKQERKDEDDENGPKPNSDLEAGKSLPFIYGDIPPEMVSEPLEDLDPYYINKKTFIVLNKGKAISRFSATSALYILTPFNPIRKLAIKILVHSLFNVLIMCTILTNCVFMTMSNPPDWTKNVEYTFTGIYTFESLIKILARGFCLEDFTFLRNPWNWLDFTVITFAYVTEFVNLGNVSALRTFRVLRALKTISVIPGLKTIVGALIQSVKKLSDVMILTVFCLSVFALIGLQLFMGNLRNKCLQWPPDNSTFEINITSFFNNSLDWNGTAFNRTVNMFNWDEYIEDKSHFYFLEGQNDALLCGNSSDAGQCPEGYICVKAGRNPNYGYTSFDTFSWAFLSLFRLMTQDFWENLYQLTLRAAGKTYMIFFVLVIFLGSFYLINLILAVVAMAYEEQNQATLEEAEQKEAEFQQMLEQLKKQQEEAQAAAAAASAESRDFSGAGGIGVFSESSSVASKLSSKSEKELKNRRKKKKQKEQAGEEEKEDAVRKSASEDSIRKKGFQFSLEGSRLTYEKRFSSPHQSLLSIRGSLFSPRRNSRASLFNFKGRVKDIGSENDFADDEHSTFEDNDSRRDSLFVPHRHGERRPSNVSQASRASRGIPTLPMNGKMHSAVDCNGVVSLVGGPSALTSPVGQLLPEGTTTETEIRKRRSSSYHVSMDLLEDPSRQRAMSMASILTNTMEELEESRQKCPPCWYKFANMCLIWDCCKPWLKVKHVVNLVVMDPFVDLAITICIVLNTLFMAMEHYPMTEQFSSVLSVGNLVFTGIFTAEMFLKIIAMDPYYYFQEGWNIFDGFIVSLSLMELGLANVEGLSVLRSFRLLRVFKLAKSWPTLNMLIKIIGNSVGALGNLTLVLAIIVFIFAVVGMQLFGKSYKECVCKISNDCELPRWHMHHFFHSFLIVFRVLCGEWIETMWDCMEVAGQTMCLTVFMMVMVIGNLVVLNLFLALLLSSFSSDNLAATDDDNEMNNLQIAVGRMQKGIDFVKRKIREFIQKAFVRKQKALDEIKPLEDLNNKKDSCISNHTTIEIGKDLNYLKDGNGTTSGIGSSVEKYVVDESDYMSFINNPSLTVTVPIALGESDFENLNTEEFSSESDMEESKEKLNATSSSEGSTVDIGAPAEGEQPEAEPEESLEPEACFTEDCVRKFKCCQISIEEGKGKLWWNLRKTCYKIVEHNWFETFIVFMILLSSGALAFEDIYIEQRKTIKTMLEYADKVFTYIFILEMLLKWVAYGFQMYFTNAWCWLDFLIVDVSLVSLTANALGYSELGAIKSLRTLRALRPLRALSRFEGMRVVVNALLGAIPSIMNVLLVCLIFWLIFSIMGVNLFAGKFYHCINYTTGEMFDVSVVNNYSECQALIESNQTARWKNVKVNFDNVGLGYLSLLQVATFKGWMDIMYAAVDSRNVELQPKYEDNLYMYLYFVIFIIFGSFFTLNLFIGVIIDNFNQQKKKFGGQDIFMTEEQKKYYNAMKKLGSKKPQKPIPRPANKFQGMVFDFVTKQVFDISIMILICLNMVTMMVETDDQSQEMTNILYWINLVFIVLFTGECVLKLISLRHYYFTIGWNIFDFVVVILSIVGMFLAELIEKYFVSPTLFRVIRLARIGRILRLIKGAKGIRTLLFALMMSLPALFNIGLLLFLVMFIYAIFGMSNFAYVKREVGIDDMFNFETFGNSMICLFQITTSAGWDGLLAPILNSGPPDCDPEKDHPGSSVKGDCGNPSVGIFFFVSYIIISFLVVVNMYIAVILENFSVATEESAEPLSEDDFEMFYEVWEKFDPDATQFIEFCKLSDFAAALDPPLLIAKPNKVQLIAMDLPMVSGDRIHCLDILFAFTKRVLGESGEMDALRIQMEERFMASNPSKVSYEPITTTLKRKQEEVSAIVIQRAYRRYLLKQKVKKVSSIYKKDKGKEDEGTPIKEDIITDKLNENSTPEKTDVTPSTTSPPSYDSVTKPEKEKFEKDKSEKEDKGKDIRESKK"}}, "data": [{"smiles": "NC(=O)COc1ccc(CN2C(=O)C3(COc4cc5c(cc43)OCCO5)c3ccccc32)cc1", "note": "(stereo not shown) [Example 13.2, 2-{4-[(2′-oxo-2,3-dihydrospiro[furo[2,3-g][1,4]benzodioxine-8,3′-indol]-1′(2′H)-yl)methyl]phenoxy}acetamide]", "values": [{"measurement": "IC50", "setting": "sodium channel", "result": "1 to 100", "unit": "nM"}, {"measurement": "Ki", "setting": "[1]", "result": "> 300", "unit": "nM"}, {"measurement": "inhibition at 10 µM", "setting": "CYP3A4", "result": "> 50", "unit": "%"}, {"measurement": "melting point", "result": "225 to 227", "unit": "°C"}]}, {"smiles": "CN(C)CCOc1ccc(CN2C(=O)C3(COc4cc5c(cc43)OCCO5)c3ccccc32)cc1", "note": "(stereo not shown) [Example 13.4, 1′-{4-[2-(dimethylamino)ethoxy]benzyl}-2,3-dihydrospiro[furo[2,3-g][1,4]benzodioxine-8,3′-indol]-2′(1′H)-one]", "values": [{"measurement": "IC50", "setting": "sodium channel", "result": "100 to 1000", "unit": "nM"}, {"measurement": "Ki", "setting": "[1]", "result": "< 300", "unit": "nM"}, {"measurement": "inhibition at 10 µM", "setting": "CYP3A4", "result": "> 50", "unit": "%"}, {"measurement": "melting point", "result": "77 to 79", "unit": "°C"}]}, {"smiles": "CCOC(=O)COc1cccc(CN2C(=O)C3(COc4cc5c(cc43)CCO5)c3ccccc32)c1", "note": "(stereo not shown) [Example 14, ethyl {3-[(2′-oxo-5,6-dihydrospiro[benzo[1,2-b:5,4-b′]difuran-3,3′-indol]-1′(2′H)-yl)methyl]phenoxy}acetate]", "values": [{"measurement": "IC50", "setting": "sodium channel", "result": "100 to 1000", "unit": "nM"}, {"measurement": "Ki", "setting": "[1]", "result": "> 300", "unit": "nM"}, {"measurement": "inhibition at 10 µM", "setting": "CYP3A4", "result": "> 50", "unit": "%"}, {"measurement": "melting point", "result": "45 to 46", "unit": "°C"}]}, {"smiles": "O=C1N(Cc2ccc(OCCO)cc2)c2ccccc2C12COc1cc3c(cc12)OCCO3", "note": "(stereo not shown) [Example 15.3, 1′-[4-(2-hydroxyethoxy)benzyl]-2,3-dihydrospiro[furo[2,3-g][1,4]benzodioxine-8,3′-indol]-2′(1′H)-one]", "values": [{"measurement": "Ki", "setting": "[1]", "result": "> 300", "unit": "nM"}, {"measurement": "inhibition at 10 µM", "setting": "CYP3A4", "result": "< 50", "unit": "%"}, {"measurement": "melting point", "result": "196 to 197", "unit": "°C"}]}, {"smiles": "CC(=O)N1CCN(c2ccc(OCC3COC(Cn4ccnc4)(c4ccc(Cl)cc4Cl)O3)cc2)CC1", "note": "(stereo not shown) [Ketoconazole]", "values": [{"measurement": "% Inhibition in 10 μM assay", "setting": "CYP2C19", "result": "65 +/− 10%"}]}, {"smiles": "Nc1ccc(S(=O)(=O)Nc2ccnn2-c2ccccc2)cc1", "note": "[Sulfaphenazole]", "values": [{"measurement": "% Inhibition in 10 μM assay", "setting": "CYP2C9", "result": "50 +/− 15%"}]}, {"smiles": "NC1=N[C@H](O)[C@H]2[C@H]3O[C@]4(O)O[C@@H]([C@@H](O)[C@@]2(N1)[C@@H]4O)[C@]3(O)CO", "note": "[TTX, tetrodotoxin]", "values": [{"measurement": "block of increase in [14C] guanidine influx", "setting": "CHO-K1 (Nav1.4)", "result": "completely blocked using TTX."}, {"measurement": "block of increase in [14C] guanidine influx", "setting": "L6 (Nav1.4 and 1.5)", "result": "partially blocked by TTX at 100 nM"}, {"measurement": "block of increase in [14C] guanidine influx", "setting": "[2]", "result": "background was partially blocked"}, {"measurement": "block of increase in [14C] guanidine influx", "setting": "SK-N-BE2C (Nav1.8)", "result": "TTX partially blocked influx"}, {"measurement": "block of increase in [14C] guanidine influx", "setting": "PC12 (Nav1.2)", "result": "guanidine influx was completely"}]}]}
